One assay concerns Staphylococcus aureus. Put plainly: Serial Dilution Test (Broth Titer Test), antibacterial, Staphylococcus aureus. It is filed as cell-based. To be noted: for MIC: Staphylococcus aureus, read-out: SDT, MIC. The method, then: (§1) Antibacterial and antifungal activity were evaluated by the Serial Dilution Test (Broth Titer Test) wherein a series of broths containing varying dilutions of a test compound and an organism are halved starting with 1:1,000. The values shown represent the maximum dilution in parts per million at which the compound under evaluation renders complete control of the organism. Pseudomonas aeruginosa (P), Staphylococcus aureus (S), and Escherichia coli (E) were the bacterial organisms employed in this test, and the fungi employed were Aspergillus niger (A) and Rhizopus stolonifer (R).
(§2) ^a In vitro serial dilution test (SDT), minimum inhibitory
(§3) concentrations (MIC) against E = E. coli, P = Ps. aeruginosa, S =
(§4) Staphylococcus aureus, A = A. niger, and R = Rhizopus stolonifer are give
(§5) in parts per million of a biocide.

The subject of the next assay is Helminthosporium teres. The experiment in a line: whole plant or invertebrate. To be noted: Pyrenophora teres, in Hordeum vulgare, read-out: Disease Control Level, BH. It is filed as in vivo.
The test system of the next assay is Botrytis cinerea. The experiment in a line: whole plant or invertebrate. It is filed as in vivo. To be noted: for pest or weed control at 300 ppm / pest or weed control at 38 ppm / pest or weed control at 75 ppm: Botrytis cinerea, read-out: Disease Control Level, BOT; for Disease Control Level, BOT: 150 ppm.
A further assay has as its system Erysiphe polygoni. The experiment in a line: whole plant or invertebrate. It is filed as in vivo. To be noted: read-out: Disease Control Level, BPM.
Another assay concerns Plasmopora viticola. Put plainly: whole plant or invertebrate. Type of assay: in vivo. To be noted: for pest or weed control at 300 ppm / pest or weed control at 38 ppm / pest or weed control at 75 ppm: read-out: Disease Control Level, GDM.
For the next assay, the system named is Piricularia oryzae. The experiment in a line: whole plant or invertebrate. Type of assay: in vivo. To be noted: for Disease Control Level, RB: 150 ppm.
Another assay has as its system Phytophthora infestans. Put plainly: whole plant or invertebrate. Type of assay: in vivo.
Assay [1] concerns Puccinia graminis f. sp. tritici. The experiment in a line: whole plant or invertebrate. Type of assay: in vivo, Puccinia graminis f. sp. tritici race 15B-2. To be noted: for Disease Control Level, WSR: 150 ppm, wheat seedlings.
The subject of a further assay is E. coli. Put plainly: Serial Dilution Test (Broth Titer Test), antibacterial, E. coli. Type of assay: cell-based, Escherichia coli. To be noted: for MIC: Escherichia coli, read-out: SDT, MIC. The method, then:
as §1, §2, §3, §4, §5

In a further assay the test system is Ps. aeruginosa. The experiment in a line: Serial Dilution Test (Broth Titer Test), antibacterial, Ps. aeruginosa. Type of assay: cell-based, Pseudomonas aeruginosa. To be noted: for MIC: Pseudomonas aeruginosa, read-out: SDT, MIC. The method, then:
as §1, §2, §3, §4, §5

In the next assay the test system is A. niger. Put plainly: Serial Dilution Test (Broth Titer Test), antifungal, A. niger. Type of assay: cell-based, Aspergillus niger. To be noted: in vitro serial dilution test; for MIC: Aspergillus niger, read-out: SDT, MIC. The method, then: as §1, §2, §3, §4, §5
The next assay concerns Rhizopus stolonifer. The experiment in a line: Serial Dilution Test (Broth Titer Test), antifungal, Rhizopus stolonifer. Type of assay: cell-based. To be noted: in vitro serial dilution test; R = Rhizopus stolonifer. The method, then: as §1, §2, §3, §4, §5
The mark [2] stands for this setting: Pyricularia oryzae, read-out: Disease Control Level, RB.
[3] abbreviates: Phytophthora infestans, in Solanum lycopersicum, read-out: Disease Control Level, TLB.
The mark [4] stands for this setting: Puccinia graminis, read-out: Disease Control Level, WSR.

The MIC is the least concentration at which growth counts as inhibited.

Values after ≈ are worked out from the molar mass of the structure shown.

As for `Cc1c(SC(=S)N(C)C)sn(CCc2ccccc2)c1=O` [Example 7], the MIC with Staphylococcus aureus is more than 500 µg/mL. The pest or weed control at 300 ppm in the assay with Helminthosporium teres is 50%; with Botrytis cinerea, 50%; with Erysiphe polygoni, 50%; in the assay on Plasmopora viticola it was 50%; with Phytophthora infestans (setting [3]), 50%; in assay [1] (setting [4]) it was 97 to 100%. The “Disease Control Level, RB” value in the assay on Piricularia oryzae was “B/E”. Also, the pest or weed control at 38 ppm in the assay with Piricularia oryzae (setting [2]) is 90 to 96%; in [1] (setting [4]), 50%. Also, the pest or weed control at 75 ppm is 90 to 96% in the assay with Piricularia oryzae (setting [2]) and 50% in assay [1] (setting [4]). Besides, in [1] (setting [4]), the pest or weed control at 150 ppm came out at 50%.
Regarding `CN(C)C(=S)Sc1cc(=O)n(C)s1` [Example 5], the MIC was 500 µg/mL (≈ 2130 µM) in the assay with E. coli, more than 500 µg/mL in the assay on Ps. aeruginosa and 125 µg/mL (≈ 533 µM) in the assay on A. niger. Besides, the pest or weed control at 19 ppm in the assay on Helminthosporium teres (19 ppm) is 50%; with Piricularia oryzae (setting [2]) it was 97 to 100%. In addition, the pest or weed control at 38 ppm is 50% with Helminthosporium teres, 90 to 96% in the assay on Botrytis cinerea, 97 to 100% in the assay with Plasmopora viticola and 97 to 100% in the assay with Piricularia oryzae (setting [2]). Besides, the pest or weed control at 75 ppm in the assay on Helminthosporium teres was 50%; in the assay with Botrytis cinerea, 97 to 100%; with Plasmopora viticola, 97 to 100%; in the assay with Piricularia oryzae (setting [2]), 97 to 100%; in assay [1] (setting [4]), 50%. The pest or weed control at 150 ppm with Helminthosporium teres was found to be 50%. In addition, the pest or weed control at 300 ppm was 97 to 100% in the assay on Helminthosporium teres; 90 to 96% in the assay with Botrytis cinerea; 50% in the assay with Erysiphe polygoni; 90 to 96% in the assay on Plasmopora viticola; 50% in the assay with Phytophthora infestans (setting [3]); 90 to 96% in assay [1] (setting [4]). The “Disease Control Level, BOT” value in the assay on Botrytis cinerea is given as “A/C”. Also, the “Disease Control Level, GDM” value is “C/E” with Plasmopora viticola (19 ppm) and “A/A” in the assay on Plasmopora viticola (150 ppm). In addition, in the assay on Piricularia oryzae, the “Disease Control Level, RB” value is given as “A/E”. In addition, the “Disease Control Level, WSR” value in assay [1] is reported as “C/E”.
As to `Cn1sc(SC(=S)N2CCCC2)cc1=O` [Example 13, 2-Methyl-5-[N,N-tetramethylenethiocarbamoyl]thio-4-isothiazolin-3-one], the minimum inhibitory concentration (MIC) with Staphylococcus aureus is more than 500 µg/mL. Moreover, the pest or weed control at 300 ppm with Helminthosporium teres is 50%; in the assay with Botrytis cinerea, 97 to 100%; in the assay on Erysiphe polygoni, 50%; in the assay with Plasmopora viticola, 97 to 100%; in the assay with Piricularia oryzae (setting [2]) it was 90 to 96%; with Phytophthora infestans (setting [3]), 90 to 96%. For the same molecule, in assay [1] (setting [4]), the pest or weed control at 300 ppm was 90 to 96%. Also, the “Disease Control Level, BOT” value in the assay on Botrytis cinerea was “A/E”. Besides, the pest or weed control at 38 ppm is 70 to 89% with Botrytis cinerea; 97 to 100% in the assay with Plasmopora viticola; 90 to 96% in the assay with Piricularia oryzae (setting [2]); 50% in the assay on Phytophthora infestans (setting [3]); 70 to 89% in assay [1] (setting [4]). Also, the pest or weed control at 75 ppm with Botrytis cinerea lay within 70 to 89%; in the assay on Plasmopora viticola it was 97 to 100%; in the assay with Piricularia oryzae (setting [2]), 90 to 96%; in the assay on Phytophthora infestans (setting [3]), 90 to 96%; in assay [1] (setting [4]), 70 to 89%. Besides, in the assay with Plasmopora viticola (150 ppm), the “Disease Control Level, GDM” value is reported as “A/E”. In the assay with Piricularia oryzae, the “Disease Control Level, RB” value is given as “A/E”. In addition, in the assay on Phytophthora infestans (150 ppm, tomato seedlings), the “Disease Control Level, TLB” value is “A/E”. Besides, in assay [1], the “Disease Control Level, WSR” value is “C/E”.
For `O=c1cc(SC(=S)N(Cc2ccccc2)Cc2ccccc2)sn1CCc1ccccc1` [Example 12, 5-(N,N-Dibenzylthiocarbamoyl)thio-2-phenethyl-4-isothiazolin-3-one], the pest or weed control at 300 ppm with Helminthosporium teres, in the assay on Botrytis cinerea, in the assay on Erysiphe polygoni, with Plasmopora viticola, in the assay with Piricularia oryzae (setting [2]) and with Phytophthora infestans (setting [3]) was 50% throughout. For the same molecule, the pest or weed control at 300 ppm in assay [1] (setting [4]) is 50%.
Turning to `CN(C)C(=S)Sc1sn(CCc2ccccc2)c(=O)c1Cl` [Example 3, 4-Chloro-5-(N,N-dimethylthiocarbamoyl)thio-2-phenethyl-4-isothiazolin-3-one], the MIC with Staphylococcus aureus is more than 500 µg/mL. Moreover, the pest or weed control at 300 ppm in the assay on Helminthosporium teres, in the assay with Botrytis cinerea, in the assay on Erysiphe polygoni, in the assay with Plasmopora viticola, in the assay on Piricularia oryzae (setting [2]) and with Phytophthora infestans (setting [3]) was 50% in each case. Further, the pest or weed control at 300 ppm in [1] (setting [4]) was in the range of 70 to 89%.
On to `CN(C)C(=S)Sc1cc(=O)n(Cc2ccccc2)s1` [Example 1, 2-Benzyl-5-(N,N-dimethylthiocarbamoyl)thio-4-isothiazolin-3-one], for which the MIC in the assay with Staphylococcus aureus is more than 500 µg/mL. Moreover, the pest or weed control at 38 ppm in the assay on Helminthosporium teres is 50%; in the assay on Botrytis cinerea it was 70 to 89%; in the assay with Plasmopora viticola, 50 to 69%; with Piricularia oryzae (setting [2]), 97 to 100%; in assay [1] (setting [4]) it was 50%. The pest or weed control at 75 ppm in the assay with Helminthosporium teres was 50%; in the assay with Botrytis cinerea, 70 to 89%; in the assay on Plasmopora viticola, 70 to 89%; with Piricularia oryzae (setting [2]), 97 to 100%; in assay [1] (setting [4]) it was 50%. Further, the pest or weed control at 150 ppm in the assay with Helminthosporium teres was determined as 50%. Moreover, the pest or weed control at 300 ppm is 97 to 100% in the assay on Helminthosporium teres; 90 to 96% in the assay with Botrytis cinerea; 50% in the assay on Erysiphe polygoni; 90 to 96% in the assay with Plasmopora viticola; 50% with Phytophthora infestans (setting [3]); 90 to 96% in assay [1] (setting [4]). Moreover, the “Disease Control Level, BOT” value with Botrytis cinerea was “B/B”. Moreover, the “Disease Control Level, GDM” value in the assay on Plasmopora viticola (150 ppm) is recorded as “C/C”. In addition, in the assay on Piricularia oryzae, the “Disease Control Level, RB” value is reported as “A/E”. Also, the “Disease Control Level, WSR” value in [1] is given as “C/C”.
On to `Cc1c(SC(=S)N(C)C)sn(-c2ccc(Cl)cc2Cl)c1=O` [Example 10], for which the “SDT, MIC” value in the assay on E. coli (in vitro serial dilution test, E = E. coli) was found to be 500 PPM; in the assay with Ps. aeruginosa (in vitro serial dilution test, P = Ps. aeruginosa), 500 PPM; with Staphylococcus aureus (in vitro serial dilution test, S = Staphylococcus aureus), 500 PPM; in the assay with A. niger, 500 PPM; in the assay on Rhizopus stolonifer it was 250 PPM.
In the case of `CCCCCCCCn1sc(SC(=S)N(C)C)cc1=O` [Example 6], the pest or weed control at 300 ppm with Helminthosporium teres was 50%; in the assay with Botrytis cinerea, 50%; with Erysiphe polygoni it was 50%; with Plasmopora viticola, 50%; in assay [1] (setting [4]), 97 to 100%.
With `CN(C)C(=S)Sc1cc(=O)n(CCc2ccccc2)s1` [Example 4], the MIC with Staphylococcus aureus is more than 500 µg/mL. In addition, the pest or weed control at 300 ppm was 50% in the assay with Helminthosporium teres; 90 to 96% in the assay on Botrytis cinerea; 50% in the assay on Erysiphe polygoni; 90 to 96% in the assay with Plasmopora viticola; 50% with Phytophthora infestans (setting [3]); 97 to 100% in [1] (setting [4]). Further, in the assay with Botrytis cinerea, the “Disease Control Level, BOT” value was “A/C”. For the same molecule, the pest or weed control at 38 ppm was 90 to 96% in the assay on Botrytis cinerea, 90 to 96% in the assay with Plasmopora viticola and 50% with Piricularia oryzae (setting [2]). In addition, the pest or weed control at 75 ppm is 90 to 96% in the assay on Botrytis cinerea, 97 to 100% with Plasmopora viticola and 50% in the assay on Piricularia oryzae (setting [2]). Besides, the “Disease Control Level, GDM” value in the assay with Plasmopora viticola (150 ppm) was “A/A”. Also, the pest or weed control at 150 ppm with Piricularia oryzae (setting [2]) was 97 to 100%. In assay [1], the “Disease Control Level, WSR” value is “E/E”.
For `Cc1c(SC(=S)N(C)C)sn(-c2ccccc2)c1=O` [Example 2, 5-(N,N-Dimethylthiocarbamoyl)thio-4-methyl-2-phenyl-4-isothiazolin-3-one], the minimal inhibitory concentration (MIC) was 500 µg/mL (≈ 1610 µM) in the assay with E. coli, more than 500 µg/mL with Ps. aeruginosa and 500 µg/mL (≈ 1610 µM) with A. niger. Also, the pest or weed control at 300 ppm with Helminthosporium teres is 50%; in the assay on Botrytis cinerea, 90 to 96%; with Erysiphe polygoni, 50%; in the assay on Plasmopora viticola, 50%; with Phytophthora infestans (setting [3]) it was 50%; in [1] (setting [4]), 70 to 89%. The “Disease Control Level, BOT” value with Botrytis cinerea is on record as “B/C”. Further, the pest or weed control at 38 ppm was 70 to 89% in the assay on Botrytis cinerea and 90 to 96% with Piricularia oryzae (setting [2]). The pest or weed control at 75 ppm with Botrytis cinerea and in the assay with Piricularia oryzae (setting [2]) was 90 to 96% each time. In the assay with Piricularia oryzae, the “Disease Control Level, RB” value is “A/E”.
Turning to `N#Cc1cc(=O)n(CCc2ccccc2)s1` [Example 15, 5-Cyano-2-phenethyl-4-isothiazolin-3-one], the minimal inhibitory concentration (MIC) in the assay on Staphylococcus aureus was more than 500 µg/mL.

The values are drawn from patent US4310590A (priority 1979, dated 1982).
